According to ChEMBL document CHEMBL1126361, “A mechanism-based inactivator of E. coli -hydroxydecanoyl thiolester dehydrase designed to crosslink active site amino acids” (Bioorg Med Chem Lett, 1992):

Test system: Escherichia coli
Experiment: Evaluation of Beta decanoyl thioester dehydrase inactivation for the compound was determined as percent enzyme activity remaining
Set-up: concentration or dose not given beside the values

SMILES	Activity
CCCCCCCCCC(=O)CBr	89%
CCCCCC/C=C/CC(=O)CCl	100%
CCCCCCC=C=CC(=O)C=[N+]=[N-]	0%
CCCCCCCCCC(=O)CCl	99%
CCCCCCC#CCC(=O)C=[N+]=[N-]	0%
CCCCCC/C=C/CC(=O)C=[N+]=[N-]	100%
CCCCCCC#CCC(=O)CCl	0%
CCCCCCCCCC(=O)C=[N+]=[N-]	97%
